# Results: ChEMBL document CHEMBL3886367, “Substituted pyridine compound” (2015)
# Biological target: T1, Cholesteryl ester transfer protein (Homo sapiens, UniProt P11597)
# T1 sequence (P11597 whole entry): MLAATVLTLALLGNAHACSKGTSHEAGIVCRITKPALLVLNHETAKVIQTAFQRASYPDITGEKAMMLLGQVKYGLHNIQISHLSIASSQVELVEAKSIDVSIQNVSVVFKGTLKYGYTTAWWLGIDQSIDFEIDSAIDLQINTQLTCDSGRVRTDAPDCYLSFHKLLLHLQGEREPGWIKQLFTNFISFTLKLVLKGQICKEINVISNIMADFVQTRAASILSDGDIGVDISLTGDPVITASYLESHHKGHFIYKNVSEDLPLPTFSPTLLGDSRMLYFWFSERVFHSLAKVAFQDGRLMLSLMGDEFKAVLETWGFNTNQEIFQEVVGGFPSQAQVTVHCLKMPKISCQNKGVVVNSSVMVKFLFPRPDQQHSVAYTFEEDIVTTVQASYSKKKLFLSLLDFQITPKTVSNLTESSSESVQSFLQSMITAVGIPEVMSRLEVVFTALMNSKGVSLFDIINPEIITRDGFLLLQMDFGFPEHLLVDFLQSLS
# Experiment: CETP Inhibition Assay: A recombinant human CETP protein (manufactured by Roar Biomedical Inc.; 4.5 ng), the acceptor lipoprotein described in (2) above (32.5 ug) and 5,5'-dithio-bis-(2-nitrobenzoic acid) (7 mM, 15 ul) were taken in a 96 well plate and the total amount of the mixture was adjusted to 48.5 ul with the PBS solution. The test compound [DMSO solution (concentration: 0.15, 0.5, 1.5, 5, 15, 50, 150 and 500 uM; 1.5 ul] was added to each well and the mixture was incubated in a thermostatic bath at 37° C. for 60 minutes. The reconstituted HDL (50 ul) described in (1) above was added to each well and the mixture was reacted in a thermostatic bath at 37° C. for 60 minutes. The 96 well plate was moved onto ice and a precipitation reagent [a mixed solution of magnesium chloride (60 mM) and 0.1% dextran sulfate [1/1 (v/v)]; 15 ul] was added to each well, and then the mixture was allowed to stand on ice for 15 minutes.
row,Compound,IC50 [nM]
1,"CC1(C)Cc2nc(C3CCN(c4ncc(Br)cn4)CC3)c([C@@H](F)c3ccc(C(F)(F)F)cc3)c(C3CCC(F)(F)CC3)c2[C@@H](O)C1 (single isomer, unassigned)",150
2,"CCOc1cnc(N2CCC(c3nc4c(c(C5CCC(F)(F)CC5)c3[C@@H](F)c3ccc(C(F)(F)F)cc3)[C@@H](O)CC(C)(C)C4)CC2)nc1 (single isomer, unassigned)",92
3,CC1(C)Cc2nc(C3CCN(c4ncc(OCCO)cn4)CC3)c([C@@H](F)c3ccc(C(F)(F)F)cc3)c(C3CCC(F)(F)CC3)c2[C@@H](O)C1,37
4,CC1(C)Cc2nc(C3CCN(c4ncc(N5CCS(=O)(=O)CC5)cn4)CC3)c([C@@H](F)c3ccc(C(F)(F)F)cc3)c(C3CCC(F)(F)CC3)c2[C@@H](O)C1,49
